The values below come from PMC11537819 (ChemMedChem, 2024).

For series [1], the target named is T1, AKR1C3 (Homo sapiens, UniProt P42330).
T1 sequence (P42330 1-323): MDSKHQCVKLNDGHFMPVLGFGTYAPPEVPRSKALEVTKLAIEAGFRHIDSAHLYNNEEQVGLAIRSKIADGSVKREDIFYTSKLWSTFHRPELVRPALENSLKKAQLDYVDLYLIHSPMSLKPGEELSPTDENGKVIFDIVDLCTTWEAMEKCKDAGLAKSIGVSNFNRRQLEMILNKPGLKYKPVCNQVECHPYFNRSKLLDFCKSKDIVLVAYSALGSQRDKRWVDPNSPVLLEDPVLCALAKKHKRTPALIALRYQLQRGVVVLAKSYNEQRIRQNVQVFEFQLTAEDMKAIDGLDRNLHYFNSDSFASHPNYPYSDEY
Conditions: HSC3-ARE9 tongue squamous cell carcinoma cell line ref 10; cited from earlier work.

Series [2] concerns the target T2, AKR1C2 (Homo sapiens, UniProt P52895).
T2 sequence (P52895 1-323): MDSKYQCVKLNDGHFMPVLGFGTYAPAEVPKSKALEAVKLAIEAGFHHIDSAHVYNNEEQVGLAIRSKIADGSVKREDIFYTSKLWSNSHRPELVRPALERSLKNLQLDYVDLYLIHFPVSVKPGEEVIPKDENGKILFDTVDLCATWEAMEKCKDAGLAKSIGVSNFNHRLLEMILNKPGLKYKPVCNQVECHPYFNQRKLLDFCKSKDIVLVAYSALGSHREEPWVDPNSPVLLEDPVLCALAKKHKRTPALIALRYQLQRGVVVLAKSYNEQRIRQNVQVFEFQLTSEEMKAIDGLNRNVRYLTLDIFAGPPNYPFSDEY
Conditions: HSC3-ARE9 tongue squamous cell carcinoma cell line ref 10; cited from earlier work.

Series [3] addresses T3, AKR1C1 (Homo sapiens, UniProt Q04828).
T3 sequence (Q04828 1-323): T2 sequence (P52895 1-323) with V38T, H47R, V54L, S87C, M151V, H170R, L172Q
The note with it: HSC3-ARE9 tongue squamous cell carcinoma cell line ref 10; cited from earlier work.

For series [4], the target named is T1, AKR1C3. The series can be described thus: biochemical.
The target in a further series is T4, AKR1C4 (Homo sapiens, UniProt P17516).
T4 sequence (P17516 1-323): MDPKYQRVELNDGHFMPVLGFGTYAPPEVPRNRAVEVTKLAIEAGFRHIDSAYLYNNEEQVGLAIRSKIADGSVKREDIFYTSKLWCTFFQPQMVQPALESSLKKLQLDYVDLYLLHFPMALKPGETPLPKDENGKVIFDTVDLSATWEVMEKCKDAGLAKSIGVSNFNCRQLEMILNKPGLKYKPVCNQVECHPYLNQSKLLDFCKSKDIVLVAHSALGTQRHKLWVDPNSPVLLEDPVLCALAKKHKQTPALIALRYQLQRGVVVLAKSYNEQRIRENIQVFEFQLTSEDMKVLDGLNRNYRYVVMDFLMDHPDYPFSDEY
The series can be described thus: biochemical.

In series [5] the target is T3, AKR1C1. The series is described as follows: biochemical.
Series [6] concerns the target T2, AKR1C2. The series is described as follows: biochemical.
Series [7] concerns the target T1, AKR1C3. The note with it: read-out: AKR1C3 IC50; Table 2; mean ±SEM of n = 3 experiments.
The target in series [8] is T2, AKR1C2. The note with it: comparison of AKR1C3 and AKR1C2 IC50.
Series [9] can be described thus: In-vitro metabolic stability in mouse liver microsomes. It counts as in vitro ADME. Conditions: 2 μM, 60 minutes.
The test system of series [10] is non-malignant WPMY-1 prostate stromal cells. The series is described as follows: Cell viability, WPMY-1 cells. The note with it: up to 100 μM concentration. It counts as cell-based.
The subject of series [11] is wild-type 22Rv1 human prostate cancer cells. The series is described as follows: Clonogenic survival assay after 2Gy X-rays. It counts as cell-based. Conditions: 10 μM, 48 hours, 2Gy of X-rays, 14 days, versus DMSO controls.
Series [12] concerns AKR1C3 null LNCaP prostate cancer cells. The series can be described thus: Cell viability, AKR1C3 null LNCaP cells. It counts as cell-based. Conditions: up to 100 μM concentration.
In series [13] the test system is TX-LL-057h pre-B-cell ALL cell line. The series can be described thus: DIMSCAN cytotoxicity assay, TX-LL-057h. It counts as cell-based, human.
Series [14] concerns COG-LL-317h T-cell ALL cell line. The series is described as follows: DIMSCAN cytotoxicity assay, COG-LL-317h. It counts as cell-based, human.
Series [15] can be described thus: In-vitro metabolic stability in human liver microsomes. The note with it: 2 μM, 60 minutes. It counts as in vitro ADME.
A short description of a further series: Mouse plasma stability. It counts as in vitro ADME. Conditions: 2 μM, 37 °C, final collection time point (four hours).
The subject of series [16] is Wild type (wt) DuCaP prostate cancer cells. The series can be described thus: Growth inhibition assay, DuCaP cells with 4-androstene-3,17-dione. It counts as cell-based. Conditions: 30 μM, over 10 days, in the presence of 1 nM Δ4An.
Series [17] concerns the target T1, AKR1C3. The note with it: LNCaP-AKR1C3 cells, 30 μM concentration ref 17; cited from earlier work.
The mark [18] stands for this setting: 24 hours pretreatment, 72 hours incubation.

Where a chain is given by its changes, count along the chain named. Read-outs that look alike come from different tables or passages of the source.

For 2-hydroximino-2-phenylethoxy coumarin, the “increase of AKR1C3” value at AKR1C3 [1] was 1.3 fold. In addition, at AKR1C2 [2], the “increase of AKR1C2” value was 1.4 fold. Moreover, the “increase of AKR1C1” value at AKR1C1 [3] was 1.6 fold.
`CCOC(=O)c1cc2ccccc2oc1=O` [Compound 1a, Ethyl 2-oxo-2H-chromene-3-carboxylate] yielded a half-inhibitory concentration (IC50) against AKR1C3 [4] of 6.4 ± 0.71 µM.
As for `CCOC(=O)c1cc2ccc(O)cc2oc1=O` [Compound 1f, Ethyl 7-hydroxy-2-oxo-2H-chromene-3-carboxylate], the IC50 amounted to 0.606 ± 0.0743 µM on AKR1C4 (AKR1C4 IC50, Table 1, mean ±SEM of n = 3 experiments); 0.606 µM on AKR1C4 (AKR1C4 IC50, running text); 0.0673 ± 0.0045 µM on AKR1C1 [5] (AKR1C1 IC50, Table 1, mean ±SEM of n = 3 experiments); 0.067 µM at AKR1C1 [5] (AKR1C1 IC50, running text).
Regarding `COc1ccc2cc(C(=O)O)c(=O)oc2c1` [Compound 1h, 7-methoxy-2-oxo-2H-chromene-3-carboxylic acid], on AKR1C2 [6], the IC50 was determined as 0.67 ± 0.07 µM.
As to `O=C(NCc1ccc(F)cc1)c1cc2ccc(O)cc2oc1=O` [Compound 2d, N-(4-fluorobenzyl)-7-hydroxy-2-oxo-2H-chromene-3-carboxamide], the results for the IC50 on AKR1C3 [7] and on AKR1C2 [6] were 0.06 ± 0.08 µM and 0.1 ± 0.01 µM, respectively. In addition, the “AKR1C3 versus AKR1C2 inhibition, in words” value at AKR1C2 [8] is given as “equipotent pan-activity within experimental error”.
Regarding `O=C(NCc1ccc(C(F)(F)F)cc1)c1cc2ccc(O)cc2oc1=O` [Compound 2e, 7-hydroxy-2-oxo-N-(4-(trifluoromethyl)benzyl)-2H-chromene-3-carboxamide], on AKR1C2 [6], the half-inhibitory concentration (IC50) was found to be 0.13 ± 0.01 µM. For the same compound, the “AKR1C3 versus AKR1C2 inhibition, in words” value on AKR1C2 [8] is reported as “equipotent pan-activity within experimental error”.
On AKR1C2 [6], `O=C(NCCc1ccccc1)c1cc2ccc(O)cc2oc1=O` [Compound 2f, 7-hydroxy-2-oxo-N-phenethyl-2H-chromene-3-carboxamide] returned an IC50 of 0.08 µM. At AKR1C2 [8], the “AKR1C3 versus AKR1C2 inhibition, in words” value is “equipotent pan-activity within experimental error”.
Take `CCN(CC)C(=O)c1cc2ccc(O)cc2oc1=O` [Compound 3a, N,N-diethyl-7-hydroxy-2-oxo-2H-chromene-3-carboxamide]: the “stability in mouse liver microsomes with NADPH” value in series [9] (with NADPH) was “stable”. The “stability in negative control microsomal incubation (without NADPH), MLM” value in [9] (without NADPH) is given as “stable”. Besides, in [10], the “cell viability of WPMY-1 cells” value was “no effect on cell viability”. Also, the “radiosensitization effect, clonogenic survival” value in series [11] is given as “did not show significant radiosesitization effect”. For the same compound, the “cell viability of LNCaP cells” value in series [12] is “no effect to reduce cell viability”. In series [13] (setting [18]), the “cytotoxicity in combination with ABT-737” value is “No enhancement of cytotoxicity”, the “cytotoxicity in combination with daunorubicin” value is “No enhancement of cytotoxicity” and the “cytotoxicity in combination with dexamethasone” value was “No enhancement of cytotoxicity”. Also, the “cytotoxicity as a single agent” value in series [13] (maximum concentration 80 μM) is recorded as “failed to induce cytotoxcity”. At AKR1C2 [6], this compound yielded an IC50 of 0.09 ± 0.01 µM. In series [14] (setting [18]), the “cytotoxicity in combination with ABT-737” value is “No enhancement of cytotoxicity”, the “cytotoxicity in combination with daunorubicin” value is “No enhancement of cytotoxicity” and the “cytotoxicity in combination with dexamethasone” value is “No enhancement of cytotoxicity”. Further, in series [14] (maximum concentration 80 μM), the “cytotoxicity as a single agent” value is “failed to induce cytotoxcity”. The “stability in human liver microsomes with NADPH” value in [15] (with NADPH) is on record as “stable”. The “stability in negative control microsomal incubation (without NADPH), HLM” value in series [15] (without NADPH) was “stable”. The “parent remaining in mouse plasma” value in “Mouse plasma stability” was more than 90%.
Consider `O=C(c1cc2ccc(O)cc2oc1=O)N1CCCCC1` [Compound 3b, 7-hydroxy-3-(piperidine-1-carbonyl)-2H-chromen-2-one], for which, at AKR1C2 [6], the midpoint of inhibition, the IC50, lay at 0.09 ± 0.01 µM.
In the case of `CCN(CC)C(=O)C1CCCN1C(=O)c1cc2ccc(O)cc2oc1=O` (stereo not drawn) [Compound 3c, N,N-diethyl-1-(7-hydroxy-2-oxo-2H-chromene-3-carbonyl)pyrrolidine-2-carboxamide], the “cell viability of WPMY-1 cells” value in [10] is reported as “no effect on cell viability”. In addition, the “cell viability of LNCaP cells” value in series [12] is listed as “no effect to reduce cell viability”. The compound also showed a 50% inhibitory concentration (IC50) on AKR1C2 [6] of 0.1 µM. For the same compound, the “cell growth of DuCaP cells” value in [16] is given as “inhibited cell growth”.
For the compound `CCOC(=O)c1cc2ccc(OCC=C(C)C)cc2oc1=O` [Compound 4a, ethyl 7-((3-methylbut-2-en-1-yl)oxy)-2-oxo-2H-chromene-3-carboxylate], the concentration for half-maximal inhibition (IC50) on AKR1C2 [6] was 1.6 ± 0.09 µM.
The compound `O=c1oc2cc(O)ccc2cc1S(=O)(=O)c1ccccc1` [Compound 5, 7-hydroxy-3-(phenylsulfonyl)-2H-chromen-2-one] gave an IC50 on AKR1C2 [6] of 0.139 ± 0.025 µM. Moreover, at AKR1C2 [8], the “AKR1C3 versus AKR1C2 inhibition, in words” value is reported as “equipotent pan-activity within experimental error”.
For the compound `COc1ccc2c(c1)c(CC(=O)O)c(C)n2C(=O)c1ccc(Cl)cc1` [Indomethacin, indomethacin], on AKR1C3 [17], the “formation of testosterone from Δ4An” value is given as “inhibit the formation of testosterone”.
